# Reference: PMC3752001 (European journal of pharmacology, 2012)
# Several values for one entry are separate records, joined by “and”; a condition that tells them apart may be missing. Equal entries are not always repeated. Structures can show the parent of a compound that is named as a salt. Where two headings read alike, the source gives them in different places.
# Experiments:
# [1] = target: HS β2D218A α4β2 receptors (Homo sapiens, UniProt P17787+P43681, D218A); assay: Two-electrode voltage clamp, HS β2D218A mutant preparation in Xenopus oocytes; format: cell-based; settings: for nH ± S.E.M.: ACh concentration/response, HSβ2D218A
# [2] = target: high sensitivity (HS) α4β2 nicotinic acetylcholine receptors (Homo sapiens, UniProt P17787+P43681); assay: Two-electrode voltage clamp, high sensitivity; format: cell-based
# [3] = target: LS β2D218A α4β2 receptors (Homo sapiens, UniProt P17787+P43681, D218A); assay: Two-electrode voltage clamp, LS β2D218A mutant preparation in Xenopus oocytes; format: cell-based; settings: for nH ± S.E.M.: ACh concentration/response, LSβ2D218A
# [4] = target: α7 nicotinic acetylcholine receptors (Homo sapiens, UniProt P36544); assay: Two-electrode voltage clamp, α7 receptors in Xenopus oocytes; format: cell-based
# [5] = target: low sensitivity (LS) α4β2 nicotinic acetylcholine receptors (Homo sapiens, UniProt P17787+P43681); assay: Two-electrode voltage clamp, low sensitivity; format: cell-based; settings: for Imax (%) potentiation: dFBr co-applied with 100 μM acetylcholine (EC75)
# [6] = tested on: human and rat 5-hydroxytryptamine transporters (SERT); settings: HEPES concentrations greater than 1 mM; ref Li et al., 2002; cited from earlier work
# HS β2D218A α4β2 receptors, sequence (P43681 27-627): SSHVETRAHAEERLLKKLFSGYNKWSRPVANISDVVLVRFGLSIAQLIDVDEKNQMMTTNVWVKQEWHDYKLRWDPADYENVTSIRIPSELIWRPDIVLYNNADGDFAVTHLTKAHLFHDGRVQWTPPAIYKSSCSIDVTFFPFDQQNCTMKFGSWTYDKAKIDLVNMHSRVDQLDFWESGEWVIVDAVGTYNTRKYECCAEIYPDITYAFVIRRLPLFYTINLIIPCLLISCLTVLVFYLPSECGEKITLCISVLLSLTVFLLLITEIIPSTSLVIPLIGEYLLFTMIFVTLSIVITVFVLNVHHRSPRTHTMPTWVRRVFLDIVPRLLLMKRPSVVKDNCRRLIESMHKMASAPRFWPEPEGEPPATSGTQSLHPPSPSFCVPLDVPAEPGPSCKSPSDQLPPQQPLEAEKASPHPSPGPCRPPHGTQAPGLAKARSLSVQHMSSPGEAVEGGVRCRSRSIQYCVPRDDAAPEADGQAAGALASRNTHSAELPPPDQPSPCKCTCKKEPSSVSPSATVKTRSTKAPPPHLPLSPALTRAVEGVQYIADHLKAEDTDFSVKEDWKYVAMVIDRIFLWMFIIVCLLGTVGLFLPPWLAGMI
# HS β2D218A α4β2 receptors, sequence (P17787 26-502 D218A): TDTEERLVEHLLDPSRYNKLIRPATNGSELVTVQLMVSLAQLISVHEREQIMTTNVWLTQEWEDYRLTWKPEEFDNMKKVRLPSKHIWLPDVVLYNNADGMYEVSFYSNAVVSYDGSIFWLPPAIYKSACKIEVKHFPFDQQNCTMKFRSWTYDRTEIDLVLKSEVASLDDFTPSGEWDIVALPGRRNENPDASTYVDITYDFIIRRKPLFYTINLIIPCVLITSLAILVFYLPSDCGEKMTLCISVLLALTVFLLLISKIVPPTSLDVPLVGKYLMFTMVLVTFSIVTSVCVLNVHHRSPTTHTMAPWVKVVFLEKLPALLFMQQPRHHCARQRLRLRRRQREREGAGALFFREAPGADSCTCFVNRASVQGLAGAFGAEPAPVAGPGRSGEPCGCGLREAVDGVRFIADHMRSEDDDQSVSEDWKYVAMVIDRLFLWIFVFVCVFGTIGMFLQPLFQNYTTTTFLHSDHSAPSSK
# high sensitivity (HS) α4β2 nicotinic acetylcholine receptors, sequence (P43681 27-627): as the sequence (P43681 27-627) above
# high sensitivity (HS) α4β2 nicotinic acetylcholine receptors, sequence (P17787 26-502): as the sequence (P17787 26-502 D218A) above, with A193D counted along it
# LS β2D218A α4β2 receptors, sequence (P43681 27-627): as the sequence (P43681 27-627) above
# LS β2D218A α4β2 receptors, sequence (P17787 26-502 D218A): as the sequence (P17787 26-502 D218A) above
# low sensitivity (LS) α4β2 nicotinic acetylcholine receptors, sequence (P43681 27-627): as the sequence (P43681 27-627) above
# low sensitivity (LS) α4β2 nicotinic acetylcholine receptors, sequence (P17787 26-502): as the sequence (P17787 26-502 D218A) above, with A193D counted along it
# α7 nicotinic acetylcholine receptors, sequence (P36544 23-502): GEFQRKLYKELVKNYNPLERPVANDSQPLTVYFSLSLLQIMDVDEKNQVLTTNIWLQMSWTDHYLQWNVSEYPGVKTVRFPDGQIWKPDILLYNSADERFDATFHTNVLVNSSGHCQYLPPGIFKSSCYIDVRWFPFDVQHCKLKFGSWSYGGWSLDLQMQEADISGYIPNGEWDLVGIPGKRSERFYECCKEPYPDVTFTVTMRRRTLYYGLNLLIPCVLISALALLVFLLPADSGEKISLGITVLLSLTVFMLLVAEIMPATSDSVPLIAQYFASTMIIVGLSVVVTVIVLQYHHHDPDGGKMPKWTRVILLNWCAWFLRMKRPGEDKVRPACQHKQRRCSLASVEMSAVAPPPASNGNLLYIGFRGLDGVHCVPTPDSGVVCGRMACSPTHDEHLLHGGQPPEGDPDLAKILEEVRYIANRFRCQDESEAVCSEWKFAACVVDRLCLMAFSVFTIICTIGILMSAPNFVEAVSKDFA
molecule,measurement,setting,value
"CC(=O)OCC[N+](C)(C)C [ACh, acetylcholine chloride]",nH ± S.E.M.,[1]; HEPES ND-96 buffer,1.1 ± 0.3
same,nH ± S.E.M.,[1]; phosphate ND-96 buffer,0.9 ± 0.3
same,change of acetylcholine pEC50,[2],not significantly changed
same,nH ± S.E.M.,[2],0.9 ± 0.2 and 1.0 ± 0.2
same,nH ± S.E.M.,[3]; HEPES ND-96 buffer,1.0 ± 0.1
same,nH ± S.E.M.,[3]; phosphate ND-96 buffer,0.8 ± 0.2
same,Hill slope,"[4]; acetylcholine, α7, phosphate ND-96 buffer",0.79 ± 0.13
same,nH ± S.E.M.,[5],1.2 ± 0.1 and 1.2 ± 0.2
"O=S(=O)(O)CCN1CCN(CCO)CC1 [HEPES, 4-(2-hydroxyethyl)-1-piperazineethanesulfonic acid]",potentiation by HEPES,"[1]; HEPES co-applied with 10 μM acetylcholine, HS β2D218A, phosphate ND-96",not potentiated
same,IC50,[2],430 µM
same,potentiation of the acetylcholine-induced Imax currents,"[2]; 100 μM HEPES, HS, phosphate ND-96",194%
same,current induced by HEPES alone,[2]; HEPES applied alone to α4β2 expressing oocytes (data not shown),no induced current
same,maximum potentiation of acetylcholine induced responses,"[2]; HEPES co-applied with 10 μM acetylcholine, HS, 2 mM phosphate ND-96, pH 7.4",190%
same,decrease of SERT currents,[6],10–50%
same,potentiation by HEPES,"[3]; HEPES co-applied with 100 μM acetylcholine, LS β2D218A, phosphate ND-96",remained insensitive
same,effect of HEPES on responses to acetylcholine,"[4]; HEPES ≤ 10 mM co-applied with 1 mM acetylcholine, α7",little observable effect
same,effect of HEPES on acetylcholine response,"[5]; HEPES co-applied with 100 μM acetylcholine, LS, phosphate ND-96",only a slight inhibition of the response with no observable potentiation
"C=CC(C)(C)c1[nH]c2cc(Br)ccc2c1CCNC [dFBr, Desformylflustrabromine · HCl]",EC50,[2],3.2 µM
same,IC50,[2],79 µM
same,Imax (%) potentiation,[2],370% and 360%
same,potentiation by dFBr,[2],~360%
same,EC50,[2]; EC50 (potentiation),2.5 µM
same,IC50,[2]; IC50 (inhibition phase),50 µM
same,EC50,[5],1.3 µM
same,IC50,[5],6.3 µM
same,Imax (%) potentiation,"[5]; LS, HEPES ND-96 buffer",260%
same,Imax (%) potentiation,"[5]; LS, phosphate ND-96 buffer",370%
Tris (hydroxymethyl)-aminomethane hydrochloride,inhibition of acetylcholine response,"[2]; 10 mM Tris co-applied with 10 μM acetylcholine, HS, phosphate ND-96",50%
same,inhibition of the dFBr potentiated acetylcholine induced response,"[2]; 10 mM Tris, with 1 μM dFBr and acetylcholine, HS, phosphate ND-96",about 50%
same,current induced by Tris alone,[2]; Tris in phosphate buffer in the absence of acetylcholine,did not induce currents
same,effect of Tris on acetylcholine response,"[5]; Tris ≤ 10 mM co-applied with 100 μM acetylcholine, LS, phosphate ND-96",only slightly inhibited
same,effect of Tris on the dFBr potentiated response,"[5]; Tris ≤ 10 mM, with 1 μM dFBr and acetylcholine, LS, phosphate ND-96",only slightly inhibited
